Test results taken from US12139492B2 (Endotarget Inc., priority 2021, dated 2024).
Read-outs that look alike come from different tables or passages of the source.

Experiments:
[1] = tested on: JeKo-1 cells; test: Antiproliferative effect, MTS cell viability assay, JeKo-1 cells; assay type: cell-based; conditions: Homo sapiens; JeKo-1 mantle cell lymphoma cells; read-out: IC50 (anti-proliferation) JeKO-1 cells
Summary of the method: (§1)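 Mino and JeKo-1 mantle B-cell lymphoma lines were exposed to compound at 0, 0.001, 0.01, 0.1, 1 and 10 μM for 72 h. Viability was read by MTS reduction to formazan, measured as absorbance at 490 nm.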

[2] = biological target: BTK (Homo sapiens, UniProt Q06187); test: Degradation of BTK protein in Namalwa cells (Western blot; DC50, Dmax); conditions: for DC50: cell line not given
[3] = tested on: Mino cells; test: Antiproliferative effect, MTS cell viability assay, Mino cells; assay type: cell-based; conditions: Homo sapiens, MINO, Mino mantle cell lymphoma cells; read-out: IC50 (anti-proliferation) Mino cells
Summary of the method: as §1

[4] = read-out: DC50 (BTK degradation), concentration giving 50% reduction of BTK expression level
[5] = read-out: Dmax (BTK degradation)

Sequence of BTK (Q06187 whole entry): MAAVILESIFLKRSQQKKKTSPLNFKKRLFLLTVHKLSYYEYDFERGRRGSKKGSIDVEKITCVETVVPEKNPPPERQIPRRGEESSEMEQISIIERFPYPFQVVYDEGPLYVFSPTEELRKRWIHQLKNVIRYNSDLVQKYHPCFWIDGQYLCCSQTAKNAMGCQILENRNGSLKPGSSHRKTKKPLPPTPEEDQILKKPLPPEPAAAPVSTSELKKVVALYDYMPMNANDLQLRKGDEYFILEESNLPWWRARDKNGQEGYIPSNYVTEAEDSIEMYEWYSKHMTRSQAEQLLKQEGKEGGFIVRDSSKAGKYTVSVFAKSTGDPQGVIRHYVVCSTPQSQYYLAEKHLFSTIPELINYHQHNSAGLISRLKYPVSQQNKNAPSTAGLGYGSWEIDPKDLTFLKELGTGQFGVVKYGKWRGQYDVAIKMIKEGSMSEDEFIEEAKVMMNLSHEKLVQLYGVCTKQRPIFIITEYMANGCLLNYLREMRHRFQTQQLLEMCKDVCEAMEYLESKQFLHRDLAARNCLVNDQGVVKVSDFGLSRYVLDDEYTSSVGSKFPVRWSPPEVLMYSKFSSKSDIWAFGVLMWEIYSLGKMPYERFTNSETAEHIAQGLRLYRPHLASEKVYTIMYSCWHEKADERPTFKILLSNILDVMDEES

DC50 [2, 4] | Dmax [2, 5] | Dmax [2] | DC50 ([2]; BTK degradation) | SMILES | IC50 [1] | IC50 [3]
0.01 to 0.05 µM | > 90% |  |  | Nc1ncnc2c1c(-c1ccc(Oc3ccccc3)cc1)nn2C1CCN(CCN2CCC(CN3CCN(c4ccc(NC5CCC(=O)NC5=O)cc4)CC3)C2)CC1 (stereo not shown) [Compound 563, 3-((4-(4-((1-(2-(4-(4-amino-3-(4-phenoxyphenyl)-1H-pyrazolo[3,4-d]pyrimidin-1-yl)piperidin-1-yl)ethyl)pyrrolidin-3-yl)methyl)piperazin-1-yl)phenyl)amino)piperidine-2,6-dione] | 1 to 10 µM | 1 to 10 µM
 |  | > 75% | 0.01 to 0.05 µM | NC(=O)c1c(-c2ccc(Oc3ccccc3)cc2)nn2c1NCCC2C1CCN(C(=O)N2CCN(CCC3CCN(c4ccc5c(c4)C(=O)N(C4CCC(=O)NC4=O)C5=O)CC3)CC2)CC1 (stereo not shown) [Compound 283, 7-(1-(4-(2-(1-(2-(2,6-dioxopiperidin-3-yl)-1,3-dioxoisoindolin-5-yl)piperidin-4-yl)ethyl)piperazine-1-carbonyl)piperidin-4-yl)-2-(4-phenoxyphenyl)-4,5,6,7-tetrahydropyrazolo[1,5-a]pyrimidine-3-carboxamide] | > 10 µM | 1 to 10 µM
0.01 to 0.05 µM | > 90% |  |  | NC(=O)c1c(-c2ccc(Oc3ccccc3)cc2)nn2c1NCC[C@H]2C1CCN(CC2CCN(C(=O)N3CCC(N4CCN(c5ccc6c(c5)C(=O)N(C5CCC(=O)NC5=O)C6=O)CC4)CC3)CC2)CC1 (stereo partly drawn) [Compound 403, (7S)-7-(1-((1-(4-(4-(2-(2,6-dioxopiperidin-3-yl)-1,3-dioxoisoindolin-5-yl)piperazin-1-yl)piperidine-1-carbonyl)piperidin-4-yl)methyl)piperidin-4-yl)-2-(4-phenoxyphenyl)-4,5,6,7-tetrahydropyrazolo[1,5-a]pyrimidine-3-carboxamide] | < 1 µM | < 1 µM
< 0.01 µM | > 90% |  |  | Nc1ncnc2c1c(-c1ccc(Oc3ccccc3)cc1)nn2C1CCC(CN2CC(N3CCN(c4ccc5c(c4)C(=O)N(C4CCC(=O)NC4=O)C5=O)CC3)C2)CC1 (stereo not shown) [Compound 532, 5-(4-(1-((4-(4-amino-3-(4-phenoxyphenyl)-1H-pyrazolo[3,4-d]pyrimidin-1-yl)cyclohexyl)methyl)azetidin-3-yl)piperazin-1-yl)-2-(2,6-dioxopiperidin-3-yl)isoindoline-1,3-dione] | < 1 µM | < 1 µM
 |  | > 75% | > 0.05 µM | NC(=O)c1c(-c2ccc(Oc3ccccc3)cc2)nn2c1NCCC2C1CCN(C(=O)N2CCC(CCN3CCC(c4ccc5c(c4)C(=O)N(C4CCC(=O)NC4=O)C5=O)CC3)CC2)CC1 (stereo not shown) [Compound 285, 7-(1-(4-(2-(4-(2-(2,6-dioxopiperidin-3-yl)-1,3-dioxoisoindolin-5-yl)piperidin-1-yl)ethyl)piperidine-1-carbonyl)piperidin-4-yl)-2-(4-phenoxyphenyl)-4,5,6,7-tetrahydropyrazolo[1,5-a]pyrimidine-3-carboxamide] | 1 to 10 µM | 1 to 10 µM
 |  | > 90% | 0.01 to 0.05 µM | NC(=O)c1c(-c2ccc(Oc3ccccc3)cc2)nn2c1NCC[C@H]2C1CCN(C(=O)N2CCC(CN3CCC(c4ccc5c(c4)C(=O)N(C4CCC(=O)NC4=O)C5=O)CC3)CC2)CC1 (stereo partly drawn) [Compound 295, (7S)-7-(1-(4-((4-(2-(2,6-dioxopiperidin-3-yl)-1,3-dioxoisoindolin-5-yl)piperidin-1-yl)methyl)piperidine-1-carbonyl)piperidin-4-yl)-2-(4-phenoxyphenyl)-4,5,6,7-tetrahydropyrazolo[1,5-a]pyrimidine-3-carboxamide] | 1 to 10 µM | < 1 µM
 |  | > 90% | < 0.01 µM | NC(=O)c1c(-c2ccc(Oc3ccccc3)cc2)nn2c1NCCC2C1CCN(CC2CCN(C(=O)N3CCN(C4CCN(c5ccc6c(c5)CN(C5CCC(=O)NC5=O)C6=O)CC4)CC3)CC2)CC1 (stereo not shown) [Compound 362, 7-(1-((1-(4-(1-(2-(2,6-dioxopiperidin-3-yl)-1-oxoisoindolin-5-yl)piperidin-4-yl)piperazine-1-carbonyl)piperidin-4-yl)methyl)piperidin-4-yl)-2-(4-phenoxyphenyl)-4,5,6,7-tetrahydropyrazolo[1,5-a]pyrimidine-3-carboxamide] | 1 to 10 µM | 1 to 10 µM

Second part, the compound before the results:

SMILES | DC50 [2, 4] | Dmax [2, 5] | Dmax [2] | DC50 ([2]; BTK degradation) | IC50 [1] | IC50 [3]
Nc1ncnc2c1c(-c1ccc(Oc3ccccc3)cc1)nn2[C@@H]1CCCN(C(=O)N2CC(N3CCN(c4ccc5c(c4)C(=O)N([C@H]4CCC(=O)NC4=O)C5=O)CC3)C2)C1 [Compound 489, 5-(4-(1-((R)-3-(4-amino-3-(4-phenoxyphenyl)-1H-pyrazolo[3,4-d]pyrimidin-1-yl)piperidine-1-carbonyl)azetidin-3-yl)piperazin-1-yl)-2-((S)-2,6-dioxopiperidin-3-yl)isoindoline-1,3-dione] | < 0.01 µM | > 90% |  |  | < 1 µM | < 1 µM
Nc1ncnc2c1c(-c1ccc(Oc3ccccc3)cc1)nn2C1CCN(C2CCN(C(=O)N3CCC(CCN4CCN(c5ccc6c(c5)CN(C5CCC(=O)NC5=O)C6=O)CC4)CC3)CC2)CC1 (stereo not shown) [Compound 252, 3-(5-(4-(2-(1-(4-(4-amino-3-(4-phenoxyphenyl)-1H-pyrazolo[3,4-d]pyrimidin-1-yl)-[1,4′-bipiperidine]-1′-carbonyl)piperidin-4-yl)ethyl)piperazin-1-yl)-1-oxoisoindolin-2-yl)piperidine-2,6-dione] |  |  | > 90% | 0.01 to 0.05 µM | < 1 µM | < 1 µM
NC(=O)c1c(-c2ccc(Oc3ccccc3)cc2)nn2c1NCC[C@H]2C1CCN(C2CCN(C(=O)N3CCC(N4CCC(c5ccc6c(c5)CN(C5CCC(=O)NC5=O)C6=O)CC4)CC3)CC2)CC1 (stereo partly drawn) [Compound 388, (7S)-7-(1′-(4-(2-(2,6-dioxopiperidin-3-yl)-1-oxoisoindolin-5-yl)-[1,4′-bipiperidine]-1′-carbonyl)-[1,4′-bipiperidin]-4-yl)-2-(4-phenoxyphenyl)-4,5,6,7-tetrahydropyrazolo[1,5-a]pyrimidine-3-carboxamide] |  |  | > 90% | 0.01 to 0.05 µM | 1 to 10 µM | < 1 µM
Nc1ncnc2c1c(-c1ccc(Oc3ccccc3)cc1)nn2C1CCN(CC2CCN(CCC3CCN(c4ccc5c(c4)CN(C4CCC(=O)NC4=O)C5=O)CC3)CC2)CC1 (stereo not shown) [Compound 202, 3-(5-(4-(2-(4-((4-(4-amino-3-(4-phenoxyphenyl)-1H-pyrazolo[3,4-d]pyrimidin-1-yl)piperidin-1-yl)methyl)piperidin-1-yl)ethyl)piperidin-1-yl)-1-oxoisoindolin-2-yl)piperidine-2,6-dione] |  |  | > 90% | 0.01 to 0.05 µM | < 1 µM | 1 to 10 µM
NC(=O)c1c(-c2ccc(Oc3ccccc3)cc2)nn2c1NCCC2C1CCN(C(=O)N2CCC(CN3CCN(c4ccc5c(c4)C(=O)N(C4CCC(=O)NC4=O)C5=O)CC3)CC2)CC1 (stereo not shown) [Compound 275, 7-(1-(4-((4-(2-(2,6-dioxopiperidin-3-yl)-1,3-dioxoisoindolin-5-yl)piperazin-1-yl)methyl)piperidine-1-carbonyl)piperidin-4-yl)-2-(4-phenoxyphenyl)-4,5,6,7-tetrahydropyrazolo[1,5-a]pyrimidine-3-carboxamide] |  |  | > 90% | < 0.01 µM | 1 to 10 µM | 1 to 10 µM
Nc1ncnc2c1c(-c1ccc(Oc3ccccc3)cc1)nn2C1CCN(C2CCN(C(=O)N3CCC(CCCN4CCC(c5ccc6c(c5)C(=O)N(C5CCC(=O)NC5=O)C6=O)CC4)CC3)CC2)CC1 (stereo not shown) [Compound 267, 5-(1-(3-(1-(4-(4-amino-3-(4-phenoxyphenyl)-1H-pyrazolo[3,4-d]pyrimidin-1-yl)-[1,4′-bipiperidine]-1′-carbonyl)piperidin-4-yl)propyl)piperidin-4-yl)-2-(2,6-dioxopiperidin-3-yl)isoindoline-1,3-dione] |  |  | > 90% | 0.01 to 0.05 µM | 1 to 10 µM | 1 to 10 µM
NC(=O)c1c(-c2ccc(Oc3ccccc3)cc2)nn2c1NCC[C@H]2C1CCN(C2CCN(CCN3CCN(c4ccc5c(c4)C(=O)N(C4CCC(=O)NC4=O)C5=O)CC3)CC2)CC1 (stereo partly drawn) [Compound 323, (7S)-7-(1′-(2-(4-(2-(2,6-dioxopiperidin-3-yl)-1,3-dioxoisoindolin-5-yl)piperazin-1-yl)ethyl)-[1,4′-bipiperidin]-4-yl)-2-(4-phenoxyphenyl)-4,5,6,7-tetrahydropyrazolo[1,5-a]pyrimidine-3-carboxamide] |  |  | > 75% | 0.01 to 0.05 µM | 1 to 10 µM | 1 to 10 µM
NC1=NC=NC2C1C(c1ccc(Oc3ccccc3)cc1)=NN2[C@@H]1CCCN(C(=O)N2CCN(C3CN(c4ccc5c(c4)C(=O)N(C4CCC(=O)NC4=O)C5=O)C3)CC2)C1 (stereo partly drawn) [Compound 505, 5-(3-(4-((3R)-3-(4-amino-3-(4-phenoxyphenyl)-3a,7a-dihydro-1H-pyrazolo[3,4-d]pyrimidin-1-yl)piperidine-1-carbonyl)piperazin-1-yl)azetidin-1-yl)-2-(2,6-dioxopiperidin-3-yl)isoindoline-1,3-dione] | 0.01 to 0.05 µM | > 75% |  |  | < 1 µM | < 1 µM
Nc1ncnc2c1c(-c1ccc(Oc3ccccc3)cc1)nn2C1CCN(C2CCN(C(=O)N3CCN(C4CCN(c5ccc6c(c5)CN(C5CCC(=O)NC5=O)C6=O)CC4)CC3)CC2)CC1 (stereo not shown) [Compound 234, 3-(5-(4-(4-(4-(4-amino-3-(4-phenoxyphenyl)-1H-pyrazolo[3,4-d]pyrimidin-1-yl)-[1,4′-bipiperidine]-1′-carbonyl)piperazin-1-yl)piperidin-1-yl)-1-oxoisoindolin-2-yl)piperidine-2,6-dione] |  |  | > 75% | 0.01 to 0.05 µM | 1 to 10 µM | 1 to 10 µM
